Results on 6 compounds are retold here after US5004565A, “Method and compositions providing enhanced chemiluminescence from 1,2-dioxetanes” (priority 1988, dated 1991).

Where a name gives a salt, the structure may show the parent alone.

Data set [1] is classed as physicochemical. To be noted: for t1/2 at 25° C.: table; for t1/2 at 25° C. / k at 25° C.: thermal decomposition in xylene. As to the method: Rates for thermal decomposition of the stable dioxetanes were monitored by the decay of chemiluminescence of aerated solutions. A cylindrical Pyrex vial equipped with magnetic stir bar was filled with 3-4 mL of the reaction solvent, sealed with a Teflon-lined screw cap and placed in the thermostatted sample block of the chemiluminescence-measuring luminometer. Temperature control was provided by an external circulating water bath. Appropriate values for the instrument gain and optical slit size were selected. […]. The vial was sealed with a Teflon-lined screw cap to prevent evaporation when high temperatures were used. Measurement of the signal was begun by opening the shutter. The chemiluminescent decay was generally recorded for at least three half-lives. Calculation of the first-order rate constant (k) from the In (Intensity) vs. time data was performed by a computer program utilizing a standard least-squares treatment. The correlation coefficient (r) was typically at least 0.999 and k varied less than 5% between replicate samples.
Activation parameters for decomposition of the dioxetanes were calculated from plots of In k vs. 1/T (Arrhenius eq.) or In k/t vs. 1/T (Eyring eq.) by a standard least-squares linear regression analysis.

Data set [2] deals with alkaline phosphatase from bovine intestinal mucosa. Nature of the data set: Triggering of xanthenone phosphate dioxetane with alkaline phosphatase from bovine intestinal mucosa. Particulars: 4.2×10^-6 M dioxetane, 1.8 μg/mL protein, pH 10.3, 37° C. Format: biochemical. As for the experimental part: Triggering experiments were conducted using alkaline phosphatase from bovine intestinal mucosa [suspension of 5.3 mg of protein (1100 units/mg protein) per mL in 3.2 M (NH4)2 SO4 ] and the phosphate-protected dioxetane at pH 10.3 in 0.75 M 2-amino-2-methyl- 1-propanol buffer. […]. The rate of decay of the emission is a function of enzyme concentration while the total light emission is independent of the enzyme concentration because of turnover of the enzyme.

Data set [3] relates to firefly luciferase. Particulars: firefly luciferase system; cited from earlier work.
Data set [4] can be described thus: Base-triggered chemiluminescence in DMSO or water. Particulars: 10^-4 M, DMSO, excess tetra-n-butylammonium hydroxide.
Data set [5] relates to urease. Nature of the data set: Triggering of 2a with urease in the presence of fluorescent micelles. Format: biochemical. Particulars: 10 μL of 3×10^-3 M 2a, CTAB, fluorescein surfactant 3, urea. As for the experimental part:
5. Enzymatic Triggering of Hydroxy-Substituted Dioxetane 2a with Urease in the Presence of Fluorescent Micelles. A solution was prepared using 160 mg of CTAB and 12.4 mg of fluorescein surfactant 3 in 200 mL of distilled water. A urea solution was made by dissolving 200 mg of urea in 100 mL of distilled water with EDTA added to give a final concentration of 0.4 mM. The substrate solution for the urease experiments was obtained by mixing 10mL of each stock solution.
Experiments were carried out with urease (Sigma) by incubation at room temperature for periods of 0.5 to 2 hours. […] The intensity of the luminescence provided a measure of the concentration of urease.

The test system of data set [6] is Alkaline Phosphatase from Human Blood Serum. Put plainly: Triggering of 2c with alkaline phosphatase from human blood serum. Format: biochemical. Particulars: 10^-5 M 2c, 100 μL serum, pH 10.3, 37° C. As to the method:
1. Triggering the Chemiluminescence of 2c with Alkaline Phosphatase from Human Blood Serum. A stock solution of dioxetane 2c was prepared in dioxane/water (1:1 v/v) by photooxygenation of 1c. A sample of fresh blood was drawn from a healthy donor and the red blood cells removed by centrifugation to provide serum for the experiments. Treatment of 3 mL of a 10^-5 M solution of 2c in 0.75 M 2-amino-2-methyl-1-propanol (221) buffer (pH 10.3) at 37° C. with 100 μL of serum led to the typical intensity vs. time profile shown in FIG. 3 where the serum is injected at time zero. Under these conditions the light intensity reaches a constant level of approximately 2.3×10^4 counts/sec. The background luminescence signal from non-enzymatic hydrolysis of 2c is less than 0.05% of the enzyme-generated value.

For data set [7], the system named is alkaline phosphatase from bovine intestinal mucosa. Nature of the data set: Triggering of 2c with alkaline phosphatase from bovine intestinal mucosa. Format: biochemical. From the text:
The chemiluminescence quantum yield (.PHI.CL) for the decomposition of dioxetanes is defined as the ratio of einsteins of chemiluminescence emitted to moles of dioxetane decomposed. Sufficient energy is released during the reaction from the reaction enthalpy (ΔHR) plus the Arrhenius activation energy (Ea) to populate the singlet excited state of one of the carbonyl cleavage products. Therefore, the maximum quantum yield is 1.0. Another parameter of interest is the chemiexcitation quantum yield (.PHI.CE) which is defined as the ratio of excited states formed to dioxetane decomposed.
The same procedure as those employed in the measurement of the decay kinetics was used for the determination of chemiluminescence quantum yields with the following modifications. An accurately measured aliquot of a dioxetane stock solution of known concentration was added to 3 mL of the pre-thermostatted organic solvent or aqueous buffer. The reaction was then triggered by adding the appropriate chemical reagent or enzyme. […]
Enzymatic triggering experiments such as those described above were also carried out in Immumlon™ microtitre wells from Dynatech, Inc. made of transparent polystyrene. […] The chemiluminescence was detected at the bottom of the well using a fiber optic connected to the photon-counting luminometer described previously. […]

Consider `COC1(c2cccc(O[Si](C)(C)C(C)(C)C)c2)OOC12C1CC3CC(C1)CC2C3` (stereo not drawn), for which the “half-life at 25° C.” value in data set [1] (General Description dioxetanes) is 3.8 years. Moreover, the decomposition on standing entry in data set [1] (o-xylene, laboratory bench, several months) is on record as “no detectable decomposition”.

With `O=P(O)(O)Oc1ccc2c(c1)Oc1ccccc1C21OOC12C1CC3CC(C1)CC2C3` (stereo not drawn), in data set [2], the “duration of chemiluminescence decay” value is 3 min.

`CCCCCCCCCCCCCCCC[N+](C)(C)C.[Br-]` [CTAB, cetyltrimethylammonium bromide]: in data set [3], the “inhibition of the catalytic activity of the luciferase” value is recorded as “complete inhibition”.

`COC1(c2cccc(O)c2)OOC12C1CC3CC(C1)CC2C3` (stereo not drawn) [dioxetane 2a, 4-(3-Hydroxyphenyl)-4-methoxyspiro[1,2-dioxetane-3,2'-adamantane]]: in data set [1], the “t1/2 at 25° C.” value stood at 4.1 yrs and the “k at 25° C.” value was 5.38e-09 s⁻¹. The “duration of chemiluminescence decay” value in data set [4] is reported as “several minutes”. Also, the “chemiluminescence after incubation with urease” value in data set [5] is “produced chemiluminescence”.

Regarding `COC1(c2cccc(OC(C)=O)c2)OOC12C1CC3CC(C1)CC2C3` (stereo not drawn) [dioxetane 2b], in data set [1], the “t1/2 at 25° C.” value is given as 13 yrs and the “k at 25° C.” value worked out at 1.73e-09 s⁻¹.

Consider `COC1(c2cccc(OP(=O)(O)O)c2)OOC12C1CC3CC(C1)CC2C3` (stereo not drawn) [dioxetane 2c, 4-Methoxy-4-(3-phosphatephenyl)spiro[1,2-dioxetane-3,2'-adamantane], disodium salt], for which, in data set [1], the “t1/2 at 25° C.” value came to 19 yrs and the “k at 25° C.” value was 1.19e-09 s⁻¹. Besides, the “light intensity at plateau” value in data set [6] is on record as “approximately 2.3×10^4 counts/sec”. For the same compound, the “detection of alkaline phosphatase” value in data set [7] (2c, CTAB and 3 in 200 μL 221 buffer, assuming enzyme purity of 10%) is “less than 0.2 attomoles”. The period of chemiluminescence in data set [7] (with CTAB and 3, 12 pg/mL protein) amounted to 45 min.
